Laboratory results: patent publication US11530200B2, “Compounds” (Inflazome Limited, priority 2018, dated 2022)
Structures can show the parent of a compound that is named as a salt.

The compounds below were run against NLRP3 (Homo sapiens (Human), UniProt Q96P20) (assay: THP-1 cells pyroptosis assay (LPS priming, nigericin, resazurin readout)). Conditions: 1.0 μg/ml LPS, nigericin 5 μM, NLRP3 inhibitory activity.
Format: cell-based
Method: THP-1 cells (ATCC #TIB-202) were grown in RPMI containing L-glutamine (Gibco #11835) supplemented with 1 mM sodium pyruvate (Sigma #S8636) and penicillin (100 units/ml)/streptomycin (0.1 mg/ml) (Sigma #P4333) in 10% Fetal Bovine Serum (FBS) (Sigma #F0804). The cells were routinely passaged and grown to confluency (10^6 cells/ml). On the day of the experiment, THP-1 cells were harvested and resuspended into RPMI medium (without FBS). The cells were then counted and viability (>90%) checked by Trypan blue (Sigma #T8154). Appropriate dilutions were made to give a concentration of 625,000 cells/ml. To this diluted cell solution was added LPS (Sigma #L4524) to give a 1 μg/ml Final Assay Concentration (FAC). 40 μl of the final preparation was aliquoted into each well of a 96-well plate. The plate thus prepared was used for compound screening. The following method step-by-step assay was followed for compound screening. • 1. Seed THP-1 cells (25,000 cells/well) containing 1.0 μg/ml LPS in 40 μl of RPMI medium (without FBS) in 96-well, black walled, clear bottom cell culture plates coated with poly-D-lysine (VWR #734-0317) • 2. Add […] compound (8 points half-log dilution, with […] top dose) or vehicle (DMSO 0.1% FAC) to the appropriate wells • 3. Incubate for 3 hrs at 37° C., 5% CO2 • 4. Add 5 μl nigericin (Sigma #N7143) (FAC 5 μM) to all wells • 5. Incubate for 1 hr at 37° C., 5% CO2 • 6. At the end of the incubation period, spin plates at 300×g for 3 mins and remove supernatant • 7. Then add 50 μl of resazurin (Sigma #R7017) (FAC 100 μM resazurin in RPMI medium without FBS) and incubate plates for a further 1-2 hrs at 37° C. and 5% CO2 • 8. Plates were read in an Envision reader at Ex 560 nm and Em 590 nm • 9. IC50 data is fitted to a non-linear regression equation (log inhibitor vs response-variable slope 4-parameters) The results of the pyroptosis assay are summarised in Table 1 below as THP IC50.

Sequence of NLRP3 (Q96P20 whole entry): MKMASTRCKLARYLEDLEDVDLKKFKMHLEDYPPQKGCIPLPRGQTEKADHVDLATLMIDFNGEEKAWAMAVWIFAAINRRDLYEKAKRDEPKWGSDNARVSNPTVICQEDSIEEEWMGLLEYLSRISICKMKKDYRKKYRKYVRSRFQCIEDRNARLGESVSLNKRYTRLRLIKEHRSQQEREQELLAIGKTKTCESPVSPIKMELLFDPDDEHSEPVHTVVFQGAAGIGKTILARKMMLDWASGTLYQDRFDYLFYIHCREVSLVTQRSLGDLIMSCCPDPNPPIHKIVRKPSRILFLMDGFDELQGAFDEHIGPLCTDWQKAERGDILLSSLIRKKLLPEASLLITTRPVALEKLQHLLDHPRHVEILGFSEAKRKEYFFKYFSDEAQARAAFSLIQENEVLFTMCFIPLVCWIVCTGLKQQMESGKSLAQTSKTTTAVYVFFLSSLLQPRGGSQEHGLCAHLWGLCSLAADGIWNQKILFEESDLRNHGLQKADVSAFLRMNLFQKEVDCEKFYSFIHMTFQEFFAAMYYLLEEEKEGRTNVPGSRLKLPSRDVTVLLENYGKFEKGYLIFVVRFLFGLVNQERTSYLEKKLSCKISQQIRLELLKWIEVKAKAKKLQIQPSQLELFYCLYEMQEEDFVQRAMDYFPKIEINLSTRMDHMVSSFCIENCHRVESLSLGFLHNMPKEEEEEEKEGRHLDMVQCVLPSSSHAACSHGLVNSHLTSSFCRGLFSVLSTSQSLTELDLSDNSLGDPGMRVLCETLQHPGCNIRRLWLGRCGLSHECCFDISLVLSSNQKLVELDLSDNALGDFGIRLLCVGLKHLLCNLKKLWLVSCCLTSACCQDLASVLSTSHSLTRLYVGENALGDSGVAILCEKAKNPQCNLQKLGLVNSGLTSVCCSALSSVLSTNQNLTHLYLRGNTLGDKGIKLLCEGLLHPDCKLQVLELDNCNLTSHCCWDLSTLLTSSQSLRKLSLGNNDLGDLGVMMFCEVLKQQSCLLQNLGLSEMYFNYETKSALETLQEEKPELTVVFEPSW

| IC50 | Compound |
| --- | --- |
| 1 to 5 µM | N#Cc1cc(-c2ccc3c(c2CC(=O)NS(=O)(=O)c2ccn(C4CC4)n2)CCC3)ccn1 [Example 1, 2-(5-(2-Cyanopyridin-4-yl)-2,3-dihydro-1H-inden-4-yl)-N-((1-cyclopropyl-1H-pyrazol-3-yl)sulfonyl)acetamide] |
| 1 to 5 µM | COc1cc(-c2cc(F)cc(C(C)C)c2CC(=O)NS(=O)(=O)c2cn(C3CC3)cn2)ccn1 [Example 3, N-((1-Cyclopropyl-1H-imidazol-4-yl)sulfonyl)-2-(4-fluoro-2-isopropyl-6-(2-methoxypyridin-4-yl)phenyl)acetamide] |
| 1 to 5 µM | COc1cc(-c2cc(F)cc(C(C)C)c2CC(=O)NS(=O)(=O)c2ccn(C3CC3)n2)ccn1 [Example 4, N-((1-Cyclopropyl-1H-pyrazol-3-yl)sulfonyl)-2-(4-fluoro-2-isopropyl-6-(2-methoxypyridin-4-yl)phenyl)acetamide] |
| 5 to 10 µM | COc1cc(-c2ccc3c(c2CC(=O)NS(=O)(=O)c2cnn(C4CC4)n2)CCC3)ccn1 [Example 5, N-((2-Cyclopropyl-2H-1,2,3-triazol-4-yl)sulfonyl)-2-(5-(2-methoxypyridin-4-yl)-2,3-dihydro-1H-inden-4-yl)acetamide] |
| 5 to 10 µM | CC(C)c1cc(F)cc(-c2cccnc2)c1CC(=O)NS(=O)(=O)c1cn(C2CC2)cn1 [Example 6, N-((1-Cyclopropyl-1H-imidazol-4-yl)sulfonyl)-2-(4-fluoro-2-isopropyl-6-(pyridin-3-yl)phenyl)acetamide] |
| 5 to 10 µM | CC(C)c1cc(F)cc(-c2ccnc(C#N)c2)c1CC(=O)NS(=O)(=O)c1cnn(C2CC2)n1 [Example 7, 2-(2-(2-Cyanopyridin-4-yl)-4-fluoro-6-isopropylphenyl)-N-((2-cyclopropyl-2H-1,2,3-triazol-4-yl)sulfonyl)acetamide] |
| 1 to 5 µM | N#Cc1cc(-c2ccc3c(c2CC(=O)NS(=O)(=O)c2cnn(C4CC4)n2)CCC3)ccn1 [Example 8, 2-(5-(2-Cyanopyridin-4-yl)-2,3-dihydro-1H-inden-4-yl)-N-((2-cyclopropyl-2H-1,2,3-triazol-4-yl)sulfonyl)acetamide] |
| 5 to 10 µM | CC(C)c1cc(F)cc(-c2ccnc(C#N)c2)c1CC(=O)NS(=O)(=O)c1cnn(C2CC2)c1 [Example 9, 2-(2-(2-Cyanopyridin-4-yl)-4-fluoro-6-isopropylphenyl)-N-((1-cyclopropyl-1H-pyrazol-4-yl)sulfonyl)acetamide] |
| 5 to 10 µM | COc1cc(-c2cc(F)cc(C(C)C)c2C(O)C(=O)NS(=O)(=O)c2cnn(C3CC3)c2)ccn1 (stereo not drawn) [Example 10, N-((1-Cyclopropyl-1H-pyrazol-4-yl)sulfonyl)-2-(4-fluoro-2-isopropyl-6-(2-methoxypyridin-4-yl)phenyl)-2-hydroxyacetamide] |
| 1 to 5 µM | COC1(c2cc(S(=O)(=O)NC(=O)Cc3c4c(cc5c3CCC5)CCC4)nn2C(C)C)COC1 [Example 12, 2-(1,2,3,5,6,7-Hexahydro-s-indacen-4-yl)-N-((1-isopropyl-5-(3-methoxyoxetan-3-yl)-1H-pyrazol-3-yl)sulfonyl)acetamide] |
| 5 to 10 µM | COC1(c2cc(S(=O)(=O)NC(=O)Cc3c(-c4ccnc(C#N)c4)ccc4c3CCC4)nn2C(C)C)COC1 [Example 13, 2-(5-(2-Cyanopyridin-4-yl)-2,3-dihydro-1H-inden-4-yl)-N-((1-isopropyl-5-(3-methoxyoxetan-3-yl)-1H-pyrazol-3-yl)sulfonyl)acetamide, potassium salt] |
| 1 to 5 µM | COC1(c2cc(S(=O)(=O)NC(=O)Cc3c4c(cc5c3CCC5)CCC4)nn2C2CC2)COC1 [Example 14, N-((1-Cyclopropyl-5-(3-methoxyoxetan-3-yl)-1H-pyrazol-3-yl)sulfonyl)-2-(1,2,3,5,6,7-hexahydro-s-indacen-4-yl)acetamide] |
| 1 to 5 µM | CC(c1cc(S(=O)(=O)NC(=O)Cc2c3c(cc4c2CCC4)CCC3)nn1C1CC1)N(C)C (stereo not drawn) [Example 15, N-((1-Cyclopropyl-5-(1-(dimethylamino)ethyl)-1H-pyrazol-3-yl)sulfonyl)-2-(1,2,3,5,6,7-hexahydro-s-indacen-4-yl)acetamide] |
| 1 to 5 µM | CC(C)c1cc(F)cc(C(C)C)c1CC(=O)NS(=O)(=O)c1cc(CN(C)C)n(C2CC2)n1 [Example 16, N-((1-Cyclopropyl-5-((dimethylamino)methyl)-1H-pyrazol-3-yl)sulfonyl)-2-(4-fluoro-2,6-diisopropylphenyl)acetamide] |
| 1 to 5 µM | COc1cc(-c2ccc3c(c2CC(=O)NS(=O)(=O)c2ccn(C4CC4)n2)CCC3)ccn1 [Example 17, N-((1-Cyclopropyl-1H-pyrazol-3-yl)sulfonyl)-2-(5-(2-methoxypyridin-4-yl)-2,3-dihydro-1H-inden-4-yl)acetamide] |
| 5 to 10 µM | O=C(Cc1c2c(cc3c1CCC3)CCC2)NS(=O)(=O)c1ccn(C2CC2)n1 [Example 19, N-((1-Cyclopropyl-1H-pyrazol-3-yl)sulfonyl)-2-(1,2,3,5,6,7-hexahydro-s-indacen-4-yl)acetamide] |
| 1 to 5 µM | COc1cc(-c2cc(F)cc(C(C)C)c2CC(=O)NS(=O)(=O)c2cnn(C3CC3)n2)ccn1 [Example 20, N-((2-Cyclopropyl-2H-1,2,3-triazol-4-yl)sulfonyl)-2-(4-fluoro-2-isopropyl-6-(2-methoxypyridin-4-yl)phenyl)acetamide] |
| 1 to 5 µM | CC(C)c1cc(F)cc(-c2cccnc2)c1CC(=O)NS(=O)(=O)c1ncn(C2CC2)n1 [Example 22, N-((1-Cyclopropyl-1H-1,2,4-triazol-3-yl)sulfonyl)-2-(4-fluoro-2-isopropyl-6-(pyridin-3-yl)phenyl)acetamide] |
| 1 to 5 µM | COc1cc(-c2ccc3c(c2CC(=O)NS(=O)(=O)c2cnn(C4CC4)c2)CCC3)ccn1 [Example 23, N-((1-Cyclopropyl-H-pyrazol-4-yl)sulfonyl)-2-(5-(2-methoxypyridin-4-yl)-2,3-dihydro-1H-inden-4-yl)acetamide] |
| 5 to 10 µM | CC(C)c1cc(F)cc(C(C)C)c1CC(=O)NS(=O)(=O)c1ncn(C2CC2)n1 [Example 25, N-((1-Cyclopropyl-H-1,2,4-triazol-3-yl)sulfonyl)-2-(4-fluoro-2,6-diisopropylphenyl)acetamide] |
| 1 to 5 µM | CC(C)c1cc(F)cc(C(C)C)c1CC(=O)NS(=O)(=O)c1cnn(C2CC2)n1 [Example 26, N-((2-Cyclopropyl-2H-1,2,3-triazol-4-yl)sulfonyl)-2-(4-fluoro-2,6-diisopropylphenyl)acetamide] |
| 1 to 5 µM | CC(C)c1cc(F)cc(-c2cccnc2)c1CC(=O)NS(=O)(=O)c1cnn(C2CC2)n1 [Example 27, N-((2-Cyclopropyl-2H-1,2,3-triazol-4-yl)sulfonyl)-2-(4-fluoro-2-isopropyl-6-(pyridin-3-yl)phenyl)acetamide] |
| 1 to 5 µM | CC(C)c1cc(F)cc(C(C)C)c1CC(=O)NS(=O)(=O)c1cn(C2CC2)cn1 [Example 28, N-((1-Cyclopropyl-1H-imidazol-4-yl)sulfonyl)-2-(4-fluoro-2,6-diisopropylphenyl)acetamide] |
| 1 to 5 µM | COC1(c2cc(S(=O)(=O)NC(=O)Cc3c(C(C)C)cc(F)cc3C(C)C)nn2C(C)C)COC1 [Example 29, 2-(4-Fluoro-2,6-diisopropylphenyl)-N-((1-isopropyl-5-(3-methoxyoxetan-3-yl)-1H-pyrazol-3-yl)sulfonyl)acetamide] |
| 5 to 10 µM | N#Cc1cc(-c2ccc3c(c2CC(=O)NS(=O)(=O)c2cnn(C4CC4)c2)CCC3)ccn1 [Example 30, 2-(5-(2-Cyanopyridin-4-yl)-2,3-dihydro-H-inden-4-yl)-N-((1-cyclopropyl-1H-pyrazol-4-yl)sulfonyl)acetamide] |
| 5 to 10 µM | CC(C)c1cc(F)cc(-c2ccnc(C#N)c2)c1CC(=O)NS(=O)(=O)c1cn(C2CC2)cn1 [Example 31, 2-(2-(2-Cyanopyridin-4-yl)-4-fluoro-6-isopropylphenyl)-N-((1-cyclopropyl-1H-imidazol-4-yl)sulfonyl)acetamide] |

| Compound | IC50 |
| --- | --- |
| CC(C)c1cc(F)cc(-c2ccncc2)c1CC(=O)NS(=O)(=O)c1ccn(C2CC2)n1 [Example 2, N-((1-Cyclopropyl-1H-pyrazol-3-yl)sulfonyl)-2-(4-fluoro-2-isopropyl-6-(pyridin-4-yl)phenyl)acetamide, potassium salt] | ≤ 1 µM |
